Results from ChEMBL document CHEMBL1129819, “Polysubstituted 2H-pyran-2-ones: A new class of hepatoprotective agents” (1997).

Columns and labels:
Format in all cases: functional
Rattus norvegicus [1] = species: Rattus norvegicus; test: Percent protection against thioacetamide-induced toxicity in rats using acid phosphatase(ACP); set-up: concentration or dose not given beside the values
Rattus norvegicus [2] = test: Percent protection against thioacetamide-induced toxicity in rats using alkaline phosphatase (ALP) when peroral administration of compound 6 mg/kg for 7 days; details: route oral
Rattus norvegicus [3] = test: Percent protection against thioacetamide-induced toxicity in rats using glutamate dehydrogenase (GIDH) when peroral administration of compound 6 mg/kg for 7 days; details: route oral
Rattus norvegicus [4] = test: Percent protection against thioacetamide-induced toxicity in rats using glutamate oxaloacetate transaminase (GOT) when peroral administration of compound 6 mg/kg for 7 days; details: route oral
Rattus norvegicus [5] = test: Percent protection against thioacetamide-induced toxicity in rats using glutamate pyruvate transaminase (GPT) when peroral administration of compound 6 mg/kg for 7 days; details: route oral
Rattus norvegicus [6] = test: Percent protection against thioacetamide-induced toxicity in rats using acid phosphatase(ACP) at peroral dose of 6 mg/kg for 7 days of compound; details: route oral
Rattus norvegicus [7] = test: Percent protection in paracetamol-induced model using glutamate pyruvate transaminase(GPT) when peroral administration of compound 6 mg/kg for 7 days; details: route oral
Rattus norvegicus [8] = test: Percent protection in carbon tetrachloride-induced model using alkaline phosphatase(ALP) when peroral administration of compound 6 mg/kg for 7 days; details: route oral
Rattus norvegicus [9] = test: Percent protection in carbon tetrachloride-induced model using glutamate dehydrogenase(GIDH) when peroral administration of compound 6 mg/kg for 7 days; details: route oral
Rattus norvegicus [10] = test: Percent protection in carbon tetrachloride-induced model using glutamate oxaloacetate transaminase(GOT) when peroral administration of compound 6 mg/kg for 7 days; details: route oral
Rattus norvegicus [11] = test: Percent protection in carbon tetrachloride-induced model using glutamate pyruvate transaminase(GPT) when peroral administration of compound 6 mg/kg for 7 days; details: route oral
Rattus norvegicus [12] = test: Percent protection in galactosamine-induced model using alkaline phosphatase(ALP) when peroral administration of compound 6 mg/kg for 7 days; details: route oral
Rattus norvegicus [13] = test: Percent protection in galactosamine-induced model using glutamate dehydrogenase(GIDH) when peroral administration of compound 6 mg/kg for 7 days; details: route oral
Rattus norvegicus [14] = test: Percent protection in galactosamine-induced model using glutamate oxaloacetate transaminase(GOT) when peroral administration of compound 6 mg/kg for 7 days; details: route oral
Rattus norvegicus [15] = test: Percent protection in paracetamol-induced model using acid phosphatase(ACP) when peroral administration of compound 6 mg/kg for 7 days; details: route oral
Rattus norvegicus [16] = test: Percent protection in paracetamol-induced model using alkaline phosphatase(ALP) at peroral dose of 6 mg/kg for 7 days; details: route oral
Rattus norvegicus [17] = test: Percent protection in paracetamol-induced model using glutamate dehydrogenase(GIDH) when peroral administration of compound 6 mg/kg for 7 days; details: route oral
Rattus norvegicus [18] = test: Percent protection in paracetamol-induced model using glutamate oxaloacetate transaminase(GOT) when peroral administration of compound 6 mg/kg for 7 days; details: route oral
Rattus norvegicus [19] = test: Percent protection in alcohol-induced model using acid phosphatase(ACP) at peroral dose of 6 mg/kg for 7 days; details: route oral
Rattus norvegicus [20] = test: Percent protection in carbon tetrachloride-induced model using acid phosphatase(ACP) when peroral administration of compound 6 mg/kg for 7 days; details: route oral
Rattus norvegicus [21] = test: Percent protection in alcohol-induced model using acid phosphatase(ACP) when peroral administration of compound 12 mg/kg for 7 days; details: route oral
Rattus norvegicus [22] = test: Percent protection in alcohol-induced model using alkaline phosphatase(ALP) when peroral administration of compound 12 mg/kg for 7 days; details: route oral
Rattus norvegicus [23] = test: Percent protection in alcohol-induced model using alkaline phosphatase(ALP) when peroral administration of compound 6 mg/kg for 7 days; details: route oral
Rattus norvegicus [24] = test: Percent protection in alcohol-induced model using glutamate dehydrogenase(GIDH) when peroral administration of compound 12 mg/kg for 7 days; details: route oral
Rattus norvegicus [25] = test: Percent protection in alcohol-induced model using glutamate dehydrogenase(GIDH) when peroral administration of compound 6 mg/kg for 7 days; details: route oral
Rattus norvegicus [26] = test: Percent protection in alcohol-induced model using glutamate oxaloacetate transaminase(GOT) when peroral administration of compound 12 mg/kg for 7 days; details: route oral
Rattus norvegicus [27] = test: Percent protection in alcohol-induced model using glutamate oxaloacetate transaminase(GOT) when peroral administration of compound 6 mg/kg for 7 days; details: route oral
Rattus norvegicus [28] = test: Percent protection in alcohol-induced model using glutamate pyruvate transaminase(GPT) at peroral dose of 12 mg/kg for 7 days; details: route oral
Rattus norvegicus [29] = test: Percent protection in alcohol-induced model using glutamate pyruvate transaminase(GPT) when peroral administration of compound 6 mg/kg for 7 days; details: route oral
Rattus norvegicus [30] = test: Percent protection in galactosamine-induced model using glutamate pyruvate transaminase(GPT) when peroral administration of compound 6 mg/kg for 7 days; details: route oral

CSc1cc(-c2ccc(F)cc2)oc(=O)c1C#N
Protection (Rattus norvegicus [1]): 46%
Protection (Rattus norvegicus [2]): 15%
Protection (Rattus norvegicus [3]): 0%
Protection (Rattus norvegicus [4]): 20%
Protection (Rattus norvegicus [5]): 31%

CSc1cc(-c2ccco2)oc(=O)c1C#N
Protection (Rattus norvegicus [1]): 0%
Protection (Rattus norvegicus [2]): 19%
Protection (Rattus norvegicus [3]): 15%
Protection (Rattus norvegicus [4]): 71%
Protection (Rattus norvegicus [5]): 72%

CSc1cc(-c2ccc(Br)cc2)oc(=O)c1Br
Protection (Rattus norvegicus [1]): 72%
Protection (Rattus norvegicus [2]): 15%
Protection (Rattus norvegicus [3]): 28%
Protection (Rattus norvegicus [4]): 47%
Protection (Rattus norvegicus [5]): 18%

CSc1cc(-c2cccnc2)oc(=O)c1C#N
Protection (Rattus norvegicus [1]): 38%
Protection (Rattus norvegicus [2]): 0%
Protection (Rattus norvegicus [3]): 51%
Protection (Rattus norvegicus [4]): 12%
Protection (Rattus norvegicus [5]): 12%

CSc1cc(-c2ccc(Br)cc2)oc(=O)c1Cl
Protection (Rattus norvegicus [6]): 30%
Protection (Rattus norvegicus [2]): 19%
Protection (Rattus norvegicus [3]): 26%
Protection (Rattus norvegicus [4]): 30%
Protection (Rattus norvegicus [5]): 40%

CSc1cc(-c2ccc(Cl)cc2)oc(=O)c1Cl
Protection (Rattus norvegicus [6]): 38%
Protection (Rattus norvegicus [2]): 40%
Protection (Rattus norvegicus [3]): 27%
Protection (Rattus norvegicus [4]): 36%
Protection (Rattus norvegicus [5]): 51%

CCOC(=O)c1c(SC)c(C#N)c(-c2ccc(Br)cc2)oc1=O
Protection (Rattus norvegicus [1]): 2%
Protection (Rattus norvegicus [2]): 0%
Protection (Rattus norvegicus [3]): 2%
Protection (Rattus norvegicus [4]): 0%
Protection (Rattus norvegicus [5]): 0%

CSc1cc(-c2ccc(Cl)cc2)oc(=S)c1Br
Protection (Rattus norvegicus [1]): 0%
Protection (Rattus norvegicus [2]): 36%
Protection (Rattus norvegicus [3]): 20%
Protection (Rattus norvegicus [4]): 25%
Protection (Rattus norvegicus [5]): 0%

COc1cc([C@H]2Oc3cc([C@H]4Oc5cc(O)cc(O)c5C(=O)[C@@H]4O)ccc3O[C@@H]2CO)ccc1O [SILYBIN A]
Protection (Rattus norvegicus [7]): 49%
Protection (Rattus norvegicus [8]): 51%
Protection (Rattus norvegicus [9]): 51%
Protection (Rattus norvegicus [10]): 48%
Protection (Rattus norvegicus [11]): 64%
Protection (Rattus norvegicus [12]): 33%
Protection (Rattus norvegicus [13]): 65%
Protection (Rattus norvegicus [14]): 47%
Protection (Rattus norvegicus [15]): 67%
Protection (Rattus norvegicus [16]): 50%
Protection (Rattus norvegicus [17]): 60%
Protection (Rattus norvegicus [18]): 46%
Protection (Rattus norvegicus [6]): 43.25%
Protection (Rattus norvegicus [1]): 61%
Protection (Rattus norvegicus [2]): 47%
Protection (Rattus norvegicus [3]): 38.81%
Protection (Rattus norvegicus [4]): 50.14%
Protection (Rattus norvegicus [5]): 47.25%
Protection (Rattus norvegicus [19]): 49%
Protection (Rattus norvegicus [20]): 57%
Protection (Rattus norvegicus [21]): 64%
Protection (Rattus norvegicus [22]): 77%
Protection (Rattus norvegicus [23]): 62%
Protection (Rattus norvegicus [24]): 59%
Protection (Rattus norvegicus [25]): 49%
Protection (Rattus norvegicus [26]): 62%
Protection (Rattus norvegicus [27]): 43%
Protection (Rattus norvegicus [28]): 78%
Protection (Rattus norvegicus [29]): 59%
Protection (Rattus norvegicus [30]): 45%

CCOC(=O)c1c(SC)cc(-c2ccc(Cl)cc2)oc1=O
Protection (Rattus norvegicus [6]): 0%
Protection (Rattus norvegicus [2]): 11%
Protection (Rattus norvegicus [3]): 17%
Protection (Rattus norvegicus [4]): 23%
Protection (Rattus norvegicus [5]): 31%

CSc1cc(-c2ccncc2)oc(=O)c1C#N
Protection (Rattus norvegicus [6]): 0%
Protection (Rattus norvegicus [2]): 12%
Protection (Rattus norvegicus [3]): 0%
Protection (Rattus norvegicus [4]): 0%
Protection (Rattus norvegicus [5]): 0%

CSc1cc(-c2ccc(Cl)cc2)oc(=O)c1
Protection (Rattus norvegicus [6]): 24%
Protection (Rattus norvegicus [2]): 42%
Protection (Rattus norvegicus [3]): 43%
Protection (Rattus norvegicus [4]): 46%
Protection (Rattus norvegicus [5]): 51%
